Patent publication US8859768B2, “Heteroaryls and uses thereof” (Millennium Pharmaceuticals, Inc., priority 2010, dated 2014)

These molecules were tested against T1, Human VPS34 (Homo sapiens, UniProt Q8NEB9) (assay: Human VPS34 Enzyme Assay (Adapta TR-FRET)). Conditions: compound at 1.111 μM; read-out: Average VPS34 % INH @ 1.111 μM.
T1 construct: GST (N); host or cells: SF9 insect cells (baculovirus)
Format: biochemical
Method: VPS34 (accession number GB:BC033004) was cloned into pDEST20-Thombin as N-terminal GST tagged fusion proteins using the Gateway system (Invitrogen, catalog#11804-013). The sequences were verified before recombinant protein expression using the Baculovirus Expression System with Gateway® Technology.
For expression VPS34 was infected at 1MOI in SF9 cells and harvested 72 hours post infection.
For purification, VPS34 is purified by Glutathione Sepharose 4 Fast Flow (GE Healthcare #17-5132-03) followed by HiTrap Q (GE Healthcare #17-1153-01).
Human VPS34 Enzyme Assay Method
100 nL compounds in DMSO are added to wells of a 384 well microtitre plate (Greiner 780076). At room temperature: 5 ul VPS34 reaction buffer (Invitrogen Assay Buffer Q (diluted 1 in 5 with nanopure water) plus 2 mM DTT and 2 mM MnCl2) containing ATP (20 uM, Promega) and 200 uM PI-PS substrate (Invitrogen PV5122) is added followed immediately by 5 ul VPS34 reaction buffer (as above) containing VPS34 (5 nM, Millennium Protein Sciences Group) and the mixture is incubated with shaking at room temperature for 1 hour. Then 5 ul VPS34 stop-detect mix (as per Invitrogen Adapta Assay kit (PV5009) instructions (contains kinase quench buffer, TR-FRET buffer, Adapta Eu anti-ADP antibody and Alexa Fluor 647 ADP tracer)) is added to quench the reaction. The plates are then incubated for 30 minutes at room temperature with shaking and then read on a BMG PheraStar Plus reader.
3) VPS34 is assayed using Adapta™ Universal Kinase Assay Kit (Invitrogen).

T1 sequence (Q8NEB9 whole entry): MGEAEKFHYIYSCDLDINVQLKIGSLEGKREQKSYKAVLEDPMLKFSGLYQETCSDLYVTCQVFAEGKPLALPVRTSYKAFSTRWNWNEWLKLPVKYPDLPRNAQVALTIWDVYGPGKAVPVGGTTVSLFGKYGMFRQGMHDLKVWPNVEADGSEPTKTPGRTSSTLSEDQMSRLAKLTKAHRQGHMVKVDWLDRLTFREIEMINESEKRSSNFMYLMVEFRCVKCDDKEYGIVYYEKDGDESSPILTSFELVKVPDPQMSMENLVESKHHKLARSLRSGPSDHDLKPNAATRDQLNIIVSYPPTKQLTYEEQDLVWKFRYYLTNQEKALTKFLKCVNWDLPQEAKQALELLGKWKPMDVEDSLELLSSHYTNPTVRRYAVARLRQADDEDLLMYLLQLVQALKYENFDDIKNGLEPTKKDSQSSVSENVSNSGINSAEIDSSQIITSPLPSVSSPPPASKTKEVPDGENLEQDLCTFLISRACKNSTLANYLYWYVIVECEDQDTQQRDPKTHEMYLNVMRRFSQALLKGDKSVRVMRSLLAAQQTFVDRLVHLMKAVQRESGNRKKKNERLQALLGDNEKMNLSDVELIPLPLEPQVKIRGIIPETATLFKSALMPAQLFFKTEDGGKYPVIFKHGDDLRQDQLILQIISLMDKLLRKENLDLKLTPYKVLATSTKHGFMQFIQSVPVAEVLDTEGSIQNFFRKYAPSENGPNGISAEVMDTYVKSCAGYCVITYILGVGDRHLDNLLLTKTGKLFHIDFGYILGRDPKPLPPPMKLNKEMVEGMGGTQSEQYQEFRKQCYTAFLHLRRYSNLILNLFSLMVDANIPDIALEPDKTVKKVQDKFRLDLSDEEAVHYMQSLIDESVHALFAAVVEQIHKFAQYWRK

Structure (SMILES)	inhibition at 1.111 µM [%]
CC(C)CC(=O)Nc1cc(-c2nc(-c3nnc[nH]3)c(-c3ccccc3Cl)o2)ccn1 [Compound I-65, N-{4-[5-(2-chlorophenyl)-4-(4H-1,2,4-triazol-3-yl)-1,3-oxazol-2-yl]pyridin-2-yl}-3-methylbutanamide]	21
O=C(Cc1ccccc1)Nc1cc(-c2nc(-c3nnc[nH]3)c(-c3ccccc3Cl)o2)ccn1 [Compound I-67, N-{4-[5-(2-chlorophenyl)-4-(4H-1,2,4-triazol-3-yl)-1,3-oxazol-2-yl]pyridin-2-yl}-2-phenylacetamide]	39
Clc1ccccc1-c1oc(-c2ccnc3[nH]ccc23)nc1-c1nnc[nH]1 [Compound I-71, 4-[5-(2-chlorophenyl)-4-(4H-1,2,4-triazol-3-yl)-1,3-oxazol-2-yl]-1H-pyrrolo[2,3-b]pyridine]	87
CCC(=O)Nc1cc(-c2nc(-c3nnc[nH]3)c(-c3ccccc3Cl)o2)ccn1 [Compound I-75, N-{4-[5-(2-chlorophenyl)-4-(4H-1,2,4-triazol-3-yl)-1,3-oxazol-2-yl]pyridin-2-yl}propanamide]	114
CCCC(=O)Nc1cc(-c2nc(-c3nnc[nH]3)c(-c3ccccc3Cl)o2)ccn1 [Compound I-76, N-{4-[5-(2-chlorophenyl)-4-(4H-1,2,4-triazol-3-yl)-1,3-oxazol-2-yl]pyridin-2-yl}butanamide]	79
Cc1cnc(NC(=O)C2CC2)cc1-c1nc(-c2nnc[nH]2)c(-c2ccccc2Cl)o1 [Compound I-77, N-{4-[5-(2-chlorophenyl)-4-(4H-1,2,4-triazol-3-yl)-1,3-oxazol-2-yl]-5-methylpyridin-2-yl}cyclopropanecarboxamide]	120

More lines, now with the values ahead:

inhibition at 1.111 µM [%]	Structure (SMILES)
64	COCCNC(=O)c1nc(-c2cc(NC(C)=O)ncc2C)oc1-c1ccccc1Cl [Compound I-64, 2-(2-acetamido-5-methylpyridin-4-yl)-5-(2-chlorophenyl)-N-(2-methoxyethyl)-1,3-oxazole-4-carboxamide]
104	CC(=O)Nc1cc(-c2cc(C(=O)NCc3cccnc3)c(-c3ccccc3Cl)o2)c(C)cn1 [Compound I-68, 5-(2-acetamido-5-methylpyridin-4-yl)-2-(2-chlorophenyl)-N-(pyridin-3-ylmethyl)-3-furamide]
144	CC(=O)Nc1cc(-c2cc(-c3ncco3)c(-c3ccccc3Cl)o2)c(C)cn1 [Compound I-69, N-{4-[5-(2-chlorophenyl)-4-(1,3-oxazol-2-yl)-2-furyl]-5-methylpyridin-2-yl}acetamide]
45	CC(=O)Nc1cc(-c2nc(C(=O)NCCn3ccnc3)c(-c3ccccc3Cl)o2)c(C)cn1 [Compound I-70, 2-(2-acetamido-5-methylpyridin-4-yl)-5-(2-chlorophenyl)-N-[2-(1H-imidazol-1-yl)ethyl]-1,3-oxazole-4-carboxamide]
78	CC(=O)Nc1cc(-c2cc(C(=O)NC(C)C)c(-c3ccccc3Cl)o2)c(C)cn1 [Compound I-72, 5-(2-acetamido-5-methylpyridin-4-yl)-2-(2-chlorophenyl)-N-isopropyl-3-furamide]
115	CC(=O)Nc1cc(-c2nc(C(=O)N(C)C)c(-c3ccccc3Cl)o2)c(C)cn1 [Compound I-73, 2-(2-acetamido-5-methylpyridin-4-yl)-5-(2-chlorophenyl)-N,N-dimethyl-1,3-oxazole-4-carboxamide]
28	CC(=O)Nc1cc(-c2nc(C(=O)NC3CCC3)c(-c3ccccc3Cl)o2)c(C)cn1 [Compound I-74, 2-(2-acetamido-5-methylpyridin-4-yl)-5-(2-chlorophenyl)-N-cyclobutyl-1,3-oxazole-4-carboxamide]
43	CC(=O)Nc1cc(-c2nc(-c3ccccc3Cl)c(-c3ccccn3)o2)c(C)cn1 [Compound I-78, N-{4-[4-(2-chlorophenyl)-5-(pyridin-2-yl)-1,3-oxazol-2-yl]-5-methylpyridin-2-yl}acetamide]
